This is an account of results in PubChem BioAssay (NCI).

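Tested at 5 concentrations; 48 h exposure; 96-well plates; endpoints linearly interpolated, else capped at highest concentration. The concentration for 50% growth inhibition is given as GI50. The concentration for full growth arrest is given as TGI.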

Among the test systems are U251 CNS; OVCAR-8 ovarian; OVCAR-5 ovarian; HCT-116 colon; TK-10 renal; NCI-H522 lung; MOLT-4 leukemia; HS 578T breast; MDA-MB-231 breast.
Common to all, as to assay: NCI tumour cell line growth inhibition, 48 h

For `CC(=O)[CH-]C(C)=O.CC(=O)[CH-]C(C)=O.CC(=O)[CH-]C(C)=O.[Ga+3]`, the GI50 in the assay with U251 CNS, with OVCAR-8 ovarian, with OVCAR-5 ovarian, in the assay with HCT-116 colon, with TK-10 renal and with NCI-H522 lung was over 100 µM in each case. Also, the TGI in the assay on U251 CNS, in the assay with OVCAR-8 ovarian, in the assay on OVCAR-5 ovarian, in the assay on HCT-116 colon, in the assay on TK-10 renal and in the assay on NCI-H522 lung was over 100 µM each time.
Turning to `CC1CCN(CCOc2ccc(CNc3ccc4nc(CCC5CCCCC5)[nH]c4c3)cc2)CC1`, the GI50 was 1.6 µM in the assay on MOLT-4 leukemia; 1.44 µM in the assay with U251 CNS; 1.96 µM with OVCAR-8 ovarian; 1.76 µM in the assay on OVCAR-5 ovarian; 1.67 µM in the assay with HS 578T breast; 1.53 µM in the assay on MDA-MB-231 breast. Moreover, the GI50 with HCT-116 colon was 1.4 µM; in the assay on TK-10 renal, 2.24 µM; with NCI-H522 lung, 1.82 µM. In addition, the TGI was determined as 4.5 µM in the assay with MOLT-4 leukemia; 2.85 µM with U251 CNS; 4.24 µM with OVCAR-8 ovarian; 3.44 µM in the assay on OVCAR-5 ovarian; 4.06 µM in the assay with HS 578T breast; 2.94 µM with MDA-MB-231 breast. In addition, the TGI turned out to be 2.72 µM with HCT-116 colon, 4.92 µM in the assay with TK-10 renal and 3.58 µM in the assay with NCI-H522 lung.
As to `O=[N+]([O-])/C=C/c1ccc(Cl)cc1Cl`, the TGI worked out at 45.7 µM with MOLT-4 leukemia; 20.5 µM with U251 CNS; 67.7 µM in the assay on OVCAR-8 ovarian; 46.3 µM in the assay on OVCAR-5 ovarian; 13 µM in the assay with HCT-116 colon; 29.8 µM in the assay with NCI-H522 lung.
Consider `CC(=O)CC(=O)CCC(=O)Nc1cccc(C(F)(F)F)c1`, for which the TGI in the assay with MOLT-4 leukemia, in the assay on U251 CNS, with OVCAR-8 ovarian, in the assay on OVCAR-5 ovarian, in the assay with HCT-116 colon and in the assay on TK-10 renal was over 100 µM in each case. Moreover, the TGI with NCI-H522 lung is over 100 µM.
As for `CC(=O)OCC(CC[CH2][Sn]([Cl])([Cl])[c]1ccccc1)OC(C)=O` (configuration not stated), the GI50 in the assay with MOLT-4 leukemia is 22 µM; in the assay on U251 CNS it was 20.4 µM; in the assay on OVCAR-8 ovarian it was 17.5 µM; in the assay with OVCAR-5 ovarian it was 15.7 µM; in the assay on HCT-116 colon, 18 µM; with TK-10 renal, 27.5 µM. The GI50 in the assay with NCI-H522 lung is 41.1 µM. In addition, the TGI was 63.7 µM in the assay with MOLT-4 leukemia; 38.5 µM in the assay on U251 CNS; 32.9 µM in the assay on OVCAR-8 ovarian; 42 µM with OVCAR-5 ovarian; 31.9 µM with HCT-116 colon; over 100 µM in the assay on TK-10 renal. This molecule also showed a TGI with NCI-H522 lung of 55.6 µM.
For the molecule `O=C(CO)C1CC2C=CC1C2` (configuration not stated), the TGI with MOLT-4 leukemia, with U251 CNS, in the assay with OVCAR-8 ovarian, in the assay with OVCAR-5 ovarian, in the assay on HCT-116 colon and with TK-10 renal was over 100 µM throughout. For the same molecule, the TGI in the assay on NCI-H522 lung is over 100 µM.
Take `C[P+]1(c2ccccc2)CCCCC1`: the TGI in the assay with MOLT-4 leukemia, with U251 CNS, with OVCAR-8 ovarian, in the assay on OVCAR-5 ovarian and in the assay with TK-10 renal was over 100 µM throughout.
On to `Clc1ccc([I+]c2ccc(Cl)cc2Cl)c(Cl)c1`, for which the GI50 in the assay with MOLT-4 leukemia was 2.5 µM; with U251 CNS, 1.77 µM; with OVCAR-8 ovarian it was 2.1 µM; in the assay on OVCAR-5 ovarian, 1.8 µM; in the assay on HS 578T breast it was 2.48 µM; in the assay with MDA-MB-231 breast it was 2.04 µM. Also, the GI50 is 1.85 µM in the assay with HCT-116 colon and 1.62 µM in the assay with NCI-H522 lung. Also, the TGI in the assay with MOLT-4 leukemia came to 6.62 µM; with U251 CNS, 3.38 µM; in the assay on OVCAR-8 ovarian, 4.8 µM; in the assay on OVCAR-5 ovarian it was 3.8 µM; in the assay with HS 578T breast, 8.81 µM; with MDA-MB-231 breast it was 4.42 µM. Besides, the TGI in the assay on HCT-116 colon amounted to 3.67 µM; with NCI-H522 lung, 3.01 µM.
Take `Nc1nc(C(=O)O)c(N=Nc2ccccc2)c(=O)[nH]1`: the TGI in the assay on MOLT-4 leukemia, with U251 CNS, in the assay with OVCAR-8 ovarian, with OVCAR-5 ovarian, in the assay on HS 578T breast and with MDA-MB-231 breast was over 100 µM in each case. In addition, the TGI in the assay on HCT-116 colon, with TK-10 renal and with NCI-H522 lung was over 100 µM each time.
Consider `C=C1C=CC2(Br)OC3CC(C)(Cl)C(Br)CC13C2(C)C` (configuration not stated), for which the TGI in the assay with MOLT-4 leukemia was 34.9 µM; in the assay on U251 CNS, 35.3 µM; in the assay with OVCAR-8 ovarian, 77.1 µM; with OVCAR-5 ovarian it was 57.6 µM; in the assay on HCT-116 colon it was 28.5 µM; in the assay with TK-10 renal it was over 100 µM. Moreover, the TGI in the assay on NCI-H522 lung amounted to 30.1 µM.
`O=C(c1c(O)cc(O)cc1O)C1Cc2ccccc21` (configuration not stated): the TGI with MOLT-4 leukemia, in the assay with U251 CNS, in the assay on OVCAR-8 ovarian, with OVCAR-5 ovarian, with HCT-116 colon and in the assay with TK-10 renal was over 100 µM each time. The TGI with NCI-H522 lung was over 100 µM.
Consider `Clc1nc(Cl)c2ncn(CCOCCn3cnc4c(Cl)nc(Cl)nc43)c2n1`, for which the GI50 was 0.336 µM in the assay on MOLT-4 leukemia; 0.174 µM in the assay with U251 CNS; 0.228 µM in the assay with OVCAR-8 ovarian; 0.227 µM in the assay with OVCAR-5 ovarian; 0.289 µM with HS 578T breast; 0.187 µM in the assay on MDA-MB-231 breast. The GI50 was 0.182 µM in the assay on HCT-116 colon, 0.772 µM with TK-10 renal and 0.684 µM in the assay on NCI-H522 lung. In addition, the TGI in the assay with MOLT-4 leukemia is over 100 µM; with U251 CNS it was 0.313 µM; with OVCAR-8 ovarian it was 0.486 µM; in the assay with OVCAR-5 ovarian, 0.51 µM; with HS 578T breast, 0.693 µM; with MDA-MB-231 breast, 0.355 µM. The figures for the TGI in the assay on HCT-116 colon, in the assay on TK-10 renal and in the assay on NCI-H522 lung were 0.346 µM, 1.71 µM and 2.22 µM, respectively.
Regarding `CCOC(=O)C(CCCNC(=O)OC(C)(C)C)N(Cc1ccc(OC)cc1OC)C(=O)CC(=O)CP(=O)(OCC)OCC` (configuration not stated), the TGI in the assay with MOLT-4 leukemia, in the assay with U251 CNS, in the assay with OVCAR-8 ovarian, with OVCAR-5 ovarian, in the assay with HCT-116 colon and in the assay with TK-10 renal was over 100 µM throughout. The molecule also returned a TGI in the assay on NCI-H522 lung of over 100 µM.
On to `Cc1ccc(C2=Nc3ccccc3SC(c3cccc4c3OCO4)C2)cc1` (configuration not stated), for which the TGI with MOLT-4 leukemia turned out to be 55.7 µM; with OVCAR-8 ovarian, 65.3 µM; with OVCAR-5 ovarian it was 51.5 µM; in the assay with TK-10 renal it was 40.3 µM; with NCI-H522 lung it was 31 µM.
`O=C(Cc1ccccc1)C(c1ccccc1)S(=O)(=O)c1ccccc1` (configuration not stated): the TGI in the assay with MOLT-4 leukemia, with U251 CNS, in the assay on OVCAR-8 ovarian, in the assay on OVCAR-5 ovarian, in the assay on HCT-116 colon and in the assay on TK-10 renal was over 100 µM throughout. Moreover, the TGI in the assay with NCI-H522 lung is over 100 µM.
Regarding `CC(C)OC(=O)C1Cc2c([nH]c3ccccc23)C(c2ccccc2)N1` (configuration not stated), the TGI with MOLT-4 leukemia, in the assay on U251 CNS, in the assay on OVCAR-8 ovarian, in the assay with OVCAR-5 ovarian, with HCT-116 colon and in the assay on TK-10 renal was over 100 µM in each case. Further, in the assay with NCI-H522 lung, the TGI is over 100 µM.
For `C/C(=N\NC(=O)C(N)=O)c1c(O)cc(C)oc1=O`, the TGI in the assay with MOLT-4 leukemia, in the assay on U251 CNS, in the assay on OVCAR-8 ovarian, in the assay on HCT-116 colon and in the assay with TK-10 renal was over 100 µM each time.
For the molecule `COc1ccc2nc3cc(Cl)ccc3c(N3CCN(c4ccnc(N5CCN(C)CC5)n4)CC3)c2c1`, the GI50 in the assay with MOLT-4 leukemia was 2.38 µM; in the assay on U251 CNS it was 1.77 µM; in the assay with OVCAR-8 ovarian, 1.93 µM; in the assay on OVCAR-5 ovarian it was 1.81 µM; with HS 578T breast it was 2.7 µM; in the assay with HCT-116 colon, 1.61 µM. The GI50 in the assay on TK-10 renal was 1.76 µM; in the assay with NCI-H522 lung, 1.61 µM. Also, the TGI in the assay with MOLT-4 leukemia was found to be 5.81 µM; in the assay on U251 CNS it was 3.43 µM; with OVCAR-8 ovarian, 3.98 µM; with OVCAR-5 ovarian, 3.9 µM; in the assay on HS 578T breast it was 8.29 µM; in the assay on HCT-116 colon, 3.05 µM. Moreover, the TGI in the assay on TK-10 renal amounted to 3.2 µM; with NCI-H522 lung it was 3.13 µM.
Turning to `COc1ccc(-c2c3c(N)c4c(nc3nc3c2c(C)nn3-c2ccccc2)CCCC4)cc1`, the GI50 is 2.3 µM with MOLT-4 leukemia; 1.72 µM in the assay with U251 CNS; 2.82 µM in the assay on OVCAR-8 ovarian; 10.1 µM with OVCAR-5 ovarian; 12.5 µM in the assay on HS 578T breast; 4.15 µM with MDA-MB-231 breast. Besides, the GI50 with HCT-116 colon was 2.15 µM; in the assay on NCI-H522 lung, 2.91 µM. Also, the TGI came to 5.77 µM in the assay on MOLT-4 leukemia; 3.56 µM in the assay on U251 CNS; 11.4 µM in the assay on OVCAR-8 ovarian; 23.2 µM with OVCAR-5 ovarian; 37.2 µM in the assay on HS 578T breast; 16.9 µM in the assay with MDA-MB-231 breast. Moreover, the TGI in the assay on HCT-116 colon worked out at 5.48 µM; with NCI-H522 lung, 12.2 µM.
Consider `CC(N)CC(=O)O` (configuration not stated), for which the TGI in the assay with MOLT-4 leukemia, in the assay on U251 CNS, in the assay on OVCAR-5 ovarian, in the assay on HCT-116 colon, with TK-10 renal and in the assay on NCI-H522 lung was over 5000 µM throughout.
Regarding `CC1CCC2(C)C(CC=C(C=O)C2(O)C=O)C12CO2` (configuration not stated), the TGI with MOLT-4 leukemia worked out at 5.83 µM; in the assay with U251 CNS, 9.37 µM; in the assay on OVCAR-8 ovarian, 6.69 µM; in the assay on OVCAR-5 ovarian, 8.03 µM; in the assay with HCT-116 colon it was 6.65 µM; in the assay with TK-10 renal, 5.19 µM. Further, the TGI with NCI-H522 lung was 5.89 µM.
